System: 935938-334-R-J1-PDC spheroids with HUVEC/MSC, viability
Test: Anticancer human tumor 935938-334-R-J1-PDC patient-derived small intestine adenocarcinoma cell line growth inhibition [PI3K]
Conditions: for IC50: curve of first compound; for viability, T/C: stronger effect = lower value
Summary of the method: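 We assembled tumor spheroids that included a stromal compartment of HUVEC and MSCs, then exposed them to targeted agents alone and together with PI3K pathway inhibitors. Concentration series descended by half-log from clinically achievable Cmax levels. Viability served as the endpoint.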
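Further: compound exposure lasted seven days before viability was read.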
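Wherever viability, T/C is given: percent of vehicle DMSO treated spheroid viability so 100% = untreated.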

Work on `CC1(C)CCC(CN2CCN(c3ccc(C(=O)NS(=O)(=O)c4ccc(NCC5CCOCC5)c([N+](=O)[O-])c4)c(Oc4cnc5[nH]ccc5c4)c3)CC2)=C(c2ccc(Cl)cc2)C1` + CC(Nc1ncnc2nc[nH]c12)c1cc2cccc(Cl)c2c(=O)n1-c1ccccc1 yielded an IC50 (second compound 0.0316 µM) of 6.28 µM, an IC50 (second compound 0.1 µM) of 6.66 µM and an IC50 (second compound 0.316 µM) of 6.04 µM. It also gave an IC50 (second compound 1 µM) of 6.82 µM, an IC50 (second compound 3.16 µM) of 6.73 µM and an IC50 (second compound 10 µM) of 5.59 µM. The viability, T/C (second compound 0.0316 µM, first compound 0.0316 µM) was 98.3%, the viability, T/C (second compound 0.0316 µM, first compound 0.1 µM) was 93.6% and the viability, T/C (second compound 0.0316 µM, first compound 0.316 µM) was 90.8%. For the same molecule, the viability, T/C (second compound 0.0316 µM, first compound 1 µM) was 88.8%, the viability, T/C (second compound 0.0316 µM, first compound 3.16 µM) was 89% and the viability, T/C (second compound 0.0316 µM, first compound 10 µM) was 23.5%. For the same molecule, the viability, T/C (second compound 0.1 µM, first compound 0.0316 µM) was 98.2%, the viability, T/C (second compound 0.1 µM, first compound 0.1 µM) was 104% and the viability, T/C (second compound 0.1 µM, first compound 0.316 µM) was 94.3%. For the same molecule, the viability, T/C (second compound 0.1 µM, first compound 1 µM) was 105%, the viability, T/C (second compound 0.1 µM, first compound 3.16 µM) was 95.1% and the viability, T/C (second compound 0.1 µM, first compound 10 µM) was 25.2%. For the same molecule, the viability, T/C (second compound 0.316 µM, first compound 0.0316 µM) was 104%, the viability, T/C (second compound 0.316 µM, first compound 0.1 µM) was 98.9% and the viability, T/C (second compound 0.316 µM, first compound 0.316 µM) was 105%. The viability, T/C (second compound 0.316 µM, first compound 1 µM) was 93.8%, the viability, T/C (second compound 0.316 µM, first compound 3.16 µM) was 86.7% and the viability, T/C (second compound 0.316 µM, first compound 10 µM) was 22.3%. The viability, T/C (second compound 1 µM, first compound 0.0316 µM) was 80.7%, the viability, T/C (second compound 1 µM, first compound 0.1 µM) was 94.1% and the viability, T/C (second compound 1 µM, first compound 0.316 µM) was 69.1%. The viability, T/C (second compound 1 µM, first compound 1 µM) was 102%, the viability, T/C (second compound 1 µM, first compound 3.16 µM) was 92.7% and the viability, T/C (second compound 1 µM, first compound 10 µM) was 31.2%. The viability, T/C (second compound 3.16 µM, first compound 0.0316 µM) was 92.6%, the viability, T/C (second compound 3.16 µM, first compound 0.1 µM) was 89.2% and the viability, T/C (second compound 3.16 µM, first compound 0.316 µM) was 87.1%. The viability, T/C (second compound 3.16 µM, first compound 1 µM) was 93.2%, the viability, T/C (second compound 3.16 µM, first compound 3.16 µM) was 92.5% and the viability, T/C (second compound 3.16 µM, first compound 10 µM) was 28.4%. The viability, T/C (second compound 10 µM, first compound 0.0316 µM) was 81.7%, the viability, T/C (second compound 10 µM, first compound 0.1 µM) was 61.5% and the viability, T/C (second compound 10 µM, first compound 0.316 µM) was 91.2%. For the same molecule, the viability, T/C (second compound 10 µM, first compound 1 µM) was 86.5%, the viability, T/C (second compound 10 µM, first compound 3.16 µM) was 73.4% and the viability, T/C (second compound 10 µM, first compound 10 µM) was 26.1%.
